Assay results taken from paper PMC2481421, “Gene expression response in target organ and whole blood varies as a function of target organ injury phenotype” (Genome Biology, 2008).
Several values for one entry are separate records, joined by “and”; a condition that tells them apart may be missing. Equal entries are not always repeated. Entries after “also recorded” stand apart in the source; their conditions may differ.

Experiments:
[1] = tested on: liver; assay: Liver histopathology (H&E sections of left liver lobe, severity graded) after a single dose; settings: for biliary hyperplasia: 48 hours; for extent of hepatocellular necrosis, amount of inflammatory cell infiltrates and/or indications of hepatocellular repair (mitosis) across animals: high dose, 48 hour; for Primary site of livery injury: rat, single administration
Procedure: The animals were acclimated for 14 days and observed for absence of disease.
Doses were determined with pilot experiments. For each chemical, doses that elicited a sub-toxic ('low'), a moderately toxic ('medium') or a overtly toxic ('high') response 24 hours after treatment were selected. […] For each compound, control animal groups were treated with vehicle alone. All animals were fasted for 12-18 hours prior to exposure. Groups of four to six animals were dosed between 8:30 and 9:30 a.m.; thereafter, feed was provided ad libitum. After 6, 24 or 48 hours of treatment, animals were anesthetized by isoflurane anesthesia. Whole blood was collected via retro-orbital plexus for hematology and gene expression analysis. Serum was collected for clinical chemistry. The animals were euthanized while under anesthesia by cervical dislocation and necropsied within 4 minutes of sacrifice. The left liver lobe was promptly removed and two defined cross sections were placed in 10% neutral buffered formalin for subsequent histopathology.
The cross sections that were fixed by immersion in 10% neutral buffered formalin (see 'In-life studies' section above) were transferred to histology grade alcohol for 18-24 hours after necropsy. Tissues were then processed, embedded in paraffin, sectioned at 5 microns, and stained with hematoxylin and eosin. A pathologist completed the initial microscopic evaluation of each liver sample for a given compound. […] An independent pathology quality assessment review was performed by a second pathologist on the initial histopathological findings.

[2] = In-life observations: body weight, gross findings before and at necropsy; format: in vivo, Male Fischer 344/N rats; settings: individual animals; for Initial Body Wt.: 48 hours group, baseline weight
Procedure: Doses were determined with pilot experiments. […] Serum was collected for clinical chemistry.

[3] = 15 mg/kg, gavage in corn oil, 48 hours after single dose
[4] = 50 mg/kg, gavage in corn oil, 48 hours after single dose
[5] = 150 mg/kg, gavage in corn oil, 48 hours after single dose
[6] = Gavage, corn oil, 15 mg/kg, 6 hours
[7] = Gavage, corn oil, 15 mg/kg, 24 hours
[8] = Gavage, corn oil, 50 mg/kg, 6 hours
[9] = Gavage, corn oil, 50 mg/kg, 24 hours
[10] = Gavage, corn oil, 150 mg/kg, 6 hours
[11] = Gavage, corn oil, 150 mg/kg, 24 hours
[12] = Gavage, corn oil, 10 mg/kg, 6 hours
[13] = Gavage, corn oil, 10 mg/kg, 24 hours
[14] = Gavage, corn oil, 10 mg/kg, 48 hours
[15] = Gavage, corn oil, 50 mg/kg, 48 hours
[16] = Gavage, corn oil, 300 mg/kg, 6 hours
[17] = Gavage, corn oil, 300 mg/kg, 24 hours
[18] = Gavage, corn oil, 300 mg/kg, 48 hours
[19] = I.P., PBS vehicle, 25 mg/kg, 48 hours
[20] = I.P., PBS vehicle, 100 mg/kg, 48 hours
[21] = I.P., PBS vehicle, 400 mg/kg, 48 hours

## CC(=N)S [Thioacetamide]
[1]
  biliary hyperplasia: evoked biliary hyperplasia
  extent of hepatocellular necrosis, amount of inflammatory cell infiltrates and/or indications of hepatocellular repair (mitosis) across animals: variability
  Primary site of livery injury: Centrilobular
[2]; 15 mg/kg, gavage in corn oil, 48 hours after single dose, at necropsy
  Gross Findings: No Gross Findings
[2]; [3]
  Clin/Ob Prior to Necropsy: Ungroomed appearance
  Final Body Wt.: 264.10 g and 257.60 g and 259.00 g and 263.10 g
[2]; 50 mg/kg, gavage in corn oil, 48 hours after single dose, at necropsy
  Gross Findings: Liver left and median lobes rough surface mild; also recorded: Liver left lobe rough surface mild, median lobe pale rough surface mild; also recorded: Liver left and median lobes pale, mildly firm, rough surface
[2]; [4]
  Clin/Ob Prior to Necropsy: Piloerection; also recorded: Ungroomed appearance
  Final Body Wt.: 233.00 g and 228.70 g and 248.40 g and 236.30 g
[2]; 150 mg/kg, gavage in corn oil, 48 hours after single dose, at necropsy
  Gross Findings: Liver left and median lobes pale, firm, rough surface mild; Kidney red medulla; also recorded: Liver left and median lobes pale, minimally firm, rough surface mild
[2]; [5]
  Clin/Ob Prior to Necropsy: Ungroomed appearance; piloerection; hunched posture; red fur discoloration (cranial dorsum); also recorded: Ungroomed appearance; piloerection; hunched posture; red nasal discharge
  Final Body Wt.: 230.90 g and 232.40 g and 228.10 g and 228.50 g
[2]; [6]
  Clin/Ob Prior to Necropsy: Normal
  Gross Findings: No Gross Findings
[2]; [7]
  Clin/Ob Prior to Necropsy: Normal
  Final Body Wt.: 261.90 g and 245.50 g and 259.10 g and 269.60 g
  Gross Findings: No Gross Findings; also recorded: Liver median lobe rough surface minimal
[2]; [8]
  Clin/Ob Prior to Necropsy: Normal
  Gross Findings: Liver left lobe mottled; also recorded: No Gross Findings
[2]; [9]
  Clin/Ob Prior to Necropsy: Ungroomed appearance; also recorded: Normal
  Final Body Wt.: 231.40 g and 233.80 g and 239.30 g and 227.90 g
  Gross Findings: No Gross Findings; also recorded: Liver left lobe rough surface mild, median lobe rough surface minimal; also recorded: Liver left lobe rough surface minimal, median lobe rough surface mild
[2]; [10]
  Clin/Ob Prior to Necropsy: Normal
  Gross Findings: Liver left lobe mottled; also recorded: No Gross Findings
[2]; [11]
  Clin/Ob Prior to Necropsy: Normal; also recorded: Red nasal discharge
  Final Body Wt.: 222.50 g and 236.40 g and 240.60 g
  Gross Findings: Liver left and median lobes rough surface mild; also recorded: Liver left lobe mottled rough surface minimal, median lobe rough surface mild
[2]; thioacetamide 15 mg/kg, gavage in corn oil
  Initial Body Wt.: 244.40 g and 241.70 g and 243.00 g and 244.10 g
[2]; thioacetamide 50 mg/kg, gavage in corn oil
  Initial Body Wt.: 243.30 g and 241.60 g and 248.50 g and 241.50 g
[2]; thioacetamide 150 mg/kg, gavage in corn oil
  Initial Body Wt.: 240.40 g and 246.90 g and 242.10 g and 241.40 g

## O=NN1CCOCC1 [N-nitrosomorpholine]
[1]
  Primary site of livery injury: Centrilobular
[2]; [12]
  Clin/Ob Prior to Necropsy: Normal
  Gross Findings: No Gross Findings
[2]; [13]
  Clin/Ob Prior to Necropsy: Normal
  Final Body Wt.: 226.20 g and 225.80 g and 258.80 g and 254.30 g
  Gross Findings: No Gross Findings
[2]; [14]
  Clin/Ob Prior to Necropsy: Normal
  Final Body Wt.: 238.00 g and 238.70 g and 249.90 g
  Gross Findings: No Gross Findings
[2]; [8]
  Clin/Ob Prior to Necropsy: Normal
  Gross Findings: No Gross Findings
[2]; [9]
  Clin/Ob Prior to Necropsy: Normal; also recorded: Corneal Opacity, right eye (pre-dose)
  Final Body Wt.: 225.10 g and 189.30 g and 237.50 g and 242.10 g
  Gross Findings: Liver posterior aspect of left lobe with dark focus (1x1 mm); also recorded: Liver left and median lobes with minimal roughening of surfaces; also recorded: Liver left and median lobes pale; also recorded: Liver left lobe pale and firm, median lobe firm with minimal roughening of surface
[2]; [15]
  Clin/Ob Prior to Necropsy: Normal
  Final Body Wt.: 229.00 g and 222.00 g and 233.70 g and 237.20 g
  Gross Findings: Liver left and median lobes with mild roughening of surfaces; also recorded: Liver left and median lobes firm with minimal roughening of surfaces; also recorded: No Gross Findings
[2]; [16]
  Clin/Ob Prior to Necropsy: Normal; also recorded: Corneal Opacity, right eye (pre-dose)
  Gross Findings: No Gross Findings
[2]; [17]
  Clin/Ob Prior to Necropsy: Normal
  Final Body Wt.: 213.90 g and 207.30 g and 219.00 g and 228.80 g
  Gross Findings: Liver left lobe mottled with minimal roughening of surface, median lobe with minimal roughening of surface; also recorded: Liver left lobe with minimal roughening of surface, median lobe mottled with minimal roughening of surface; also recorded: Liver left and median lobes with firm with mild roughening of surfaces
[2]; [18]
  Clin/Ob Prior to Necropsy: Ungroomed Appearance
  Final Body Wt.: 205.40 g and 202.50 g and 201.50 g and 203.90 g
  Gross Findings: Liver left and median lobes dark with mild roughening of surfaces; median lobe with prominent centrilobular pattern; also recorded: Liver left and median lobes dark with mild roughening of surfaces; median lobe with fibrin on surface; also recorded: Liver left and median lobes firm and dark with mild roughening of surfaces

## N[C@H]1C(O)O[C@H](CO)[C@H](O)[C@@H]1O (stereo partly shown) [Galactosamine]
[1]
  biliary hyperplasia: evoked biliary hyperplasia
  extent of hepatocellular necrosis, amount of inflammatory cell infiltrates and/or indications of hepatocellular repair (mitosis) across animals: variability
  Primary site of livery injury: Random
[2]; 25 mg/kg, I.P., PBS, 6 hours
  Clin/Ob Prior to Necropsy: Normal
  Gross Findings: No Gross Findings; also recorded: Liver left lobe mottled, median lobe mottled with dark edges
[2]; 25 mg/kg, I.P., PBS, 24 hours
  Clin/Ob Prior to Necropsy: Normal
  Final Body Wt.: 288.30 g and 287.60 g and 307.80 g and 298.50 g
  Gross Findings: No Gross Findings
[2]; 25 mg/kg, I.P., PBS, 48 hours
  Clin/Ob Prior to Necropsy: Normal
  Final Body Wt.: 291.10 g and 291.80 g and 294.20 g
  Gross Findings: No Gross Findings
[2]; 100 mg/kg, I.P., PBS, 6 hours
  Clin/Ob Prior to Necropsy: Normal
  Gross Findings: Liver left lobe mottled, median lobe mottled with dark edges; also recorded: No Gross Findings
[2]; 100 mg/kg, I.P., PBS, 24 hours
  Clin/Ob Prior to Necropsy: Normal
  Final Body Wt.: 270.10 g and 280.10 g and 305.10 g and 290.70 g
  Gross Findings: No Gross Findings; also recorded: Liver median lobe mottled
[2]; 400 mg/kg, I.P., PBS, 6 hours
  Clin/Ob Prior to Necropsy: Normal
  Gross Findings: No Gross Findings; also recorded: Liver left lobe mottled, median lobe mottled with dark edges
[2]; 400 mg/kg, I.P., PBS, 24 hours
  Clin/Ob Prior to Necropsy: Normal
  Final Body Wt.: 270.50 g and 268.20 g and 301.80 g and 280.20 g
  Gross Findings: Liver left lobe with dark edges, median lobe mottled; also recorded: Liver left lobe mottled with dark edges, median lobe mottled; also recorded: No Gross Findings; also recorded: Liver left and median lobes dark and mottled
[2]; [19]
  Clin/Ob Prior to Necropsy: Normal
  Final Body Wt.: 287.20 g
  Gross Findings: No Gross Findings
[2]; [20]
  Clin/Ob Prior to Necropsy: Normal
  Final Body Wt.: 284.20 g and 284.00 g and 295.90 g and 294.00 g
  Gross Findings: No Gross Findings
[2]; [21]
  Clin/Ob Prior to Necropsy: Piloerection, Decreased muscle tone; also recorded: Normal
  Final Body Wt.: 263.20 g and 263.40 g and 260.90 g and 265.30 g
  Gross Findings: Liver left and median lobes pale with mildly rough surface and dark edges; also recorded: Liver left lobe firm and pale with minimally rough surface and dark edges, median lobe firm, pale, and mottled with minimally rough surface; also recorded: Liver left lobe pale, mottled, and firm; median lobe pale with dark areas and firm
